Assay results published in article PMC9112895, “Selective Inhibition of Plasmodium falciparum ATPase 6 by Artemisinins and Identification of New Classes of Inhibitors after Expression in Yeast” (Antimicrobial Agents and Chemotherapy, 2022).

What was measured:
[1] = molecular target: PfATP6 (Plasmodium falciparum, UniProt Q08853); assay: Yeast whole-cell growth inhibition (functional rescue) assay, K667[PfATP6]; format: cell-based; set-up: pUGpd containing the yeast-optimized coding region of PfATP6 from Plasmodium falciparum; expressed in transfected cells; host or cells: Saccharomyces cerevisiae K667 and K667Δpdr5::HIS
Sequence of PfATP6 (Q08853 whole entry): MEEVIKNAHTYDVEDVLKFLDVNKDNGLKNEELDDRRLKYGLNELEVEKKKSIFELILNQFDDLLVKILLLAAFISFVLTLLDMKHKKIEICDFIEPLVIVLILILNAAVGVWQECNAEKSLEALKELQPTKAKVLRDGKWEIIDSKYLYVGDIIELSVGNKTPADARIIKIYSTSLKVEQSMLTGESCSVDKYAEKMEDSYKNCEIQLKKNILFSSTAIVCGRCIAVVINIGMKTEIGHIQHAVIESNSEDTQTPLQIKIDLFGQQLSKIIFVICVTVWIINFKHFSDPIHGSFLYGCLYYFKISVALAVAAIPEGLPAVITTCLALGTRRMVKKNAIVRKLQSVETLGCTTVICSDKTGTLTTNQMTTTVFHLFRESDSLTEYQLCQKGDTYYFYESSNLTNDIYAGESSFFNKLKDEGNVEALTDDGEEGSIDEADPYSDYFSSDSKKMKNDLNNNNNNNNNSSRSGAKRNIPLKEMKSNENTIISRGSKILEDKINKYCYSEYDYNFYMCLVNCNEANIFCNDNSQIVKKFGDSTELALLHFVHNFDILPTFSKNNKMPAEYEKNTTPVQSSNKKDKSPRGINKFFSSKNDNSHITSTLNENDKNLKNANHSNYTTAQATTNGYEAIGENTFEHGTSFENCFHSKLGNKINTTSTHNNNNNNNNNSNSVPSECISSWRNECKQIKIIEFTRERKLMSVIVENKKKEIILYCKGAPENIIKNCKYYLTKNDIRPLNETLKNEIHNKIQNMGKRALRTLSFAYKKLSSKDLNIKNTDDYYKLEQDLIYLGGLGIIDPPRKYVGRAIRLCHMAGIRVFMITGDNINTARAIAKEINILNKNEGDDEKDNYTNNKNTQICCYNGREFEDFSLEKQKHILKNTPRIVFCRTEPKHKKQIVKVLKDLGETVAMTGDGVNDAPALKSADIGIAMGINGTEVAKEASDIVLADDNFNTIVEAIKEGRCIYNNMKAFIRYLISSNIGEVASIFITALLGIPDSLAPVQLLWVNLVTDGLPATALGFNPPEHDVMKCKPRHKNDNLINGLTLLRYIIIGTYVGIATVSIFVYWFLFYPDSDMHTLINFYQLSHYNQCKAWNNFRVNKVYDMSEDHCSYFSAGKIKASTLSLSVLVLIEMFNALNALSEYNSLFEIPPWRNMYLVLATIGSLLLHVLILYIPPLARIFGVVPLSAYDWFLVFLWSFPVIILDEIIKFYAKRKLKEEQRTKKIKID
Experimental: The screening assay used here was developed from the protocol used by Pulcini et al. ([13]). A single colony of the yeast strain to be screened was picked and grown in 5 mL of selective medium until stationary phase was reached. The culture was diluted 100-fold in ampicillin-supplemented yeast extract-peptone-dextrose (YPD) medium to an OD at 620 nm (OD620) equivalent to that of lag phase. YPD medium was supplemented with an appropriate concentration of calcium, depending on the transformed strain. […] The optimal calcium concentration was periodically monitored and, if necessary, adjusted using a calcium concentration range of 10 to 30 mM. A final volume of 200 μL of the yeast culture was added to each well of a 96-well plate, with 5 technical replicates included per inhibitor. All inhibitors were dissolved in dimethyl sulfoxide (DMSO) unless otherwise stated. […] The 96-well plates were incubated at 30°C for 42 h. The yeast growth was estimated from the absorbance at 620 nm in a Tecan plate reader. Growth was normalized with the no-drug control to present data as percent growth. The data collected were analyzed using GraphPad Prism v9.0 (GraphPad software, San Diego, CA, U.S.A).

[2] = molecular target: T1, S769N PfATP6 (Plasmodium falciparum, UniProt Q08853, S769N); assay: Yeast whole-cell assay, PfATP6 S769N mutant; format: cell-based; details: read-out: IC50 (mean ± SD)
T1 construct: expressed in transfected cells; host or cells: Saccharomyces cerevisiae K667-derived strain
T1 sequence (Q08853 1-1228 S769N): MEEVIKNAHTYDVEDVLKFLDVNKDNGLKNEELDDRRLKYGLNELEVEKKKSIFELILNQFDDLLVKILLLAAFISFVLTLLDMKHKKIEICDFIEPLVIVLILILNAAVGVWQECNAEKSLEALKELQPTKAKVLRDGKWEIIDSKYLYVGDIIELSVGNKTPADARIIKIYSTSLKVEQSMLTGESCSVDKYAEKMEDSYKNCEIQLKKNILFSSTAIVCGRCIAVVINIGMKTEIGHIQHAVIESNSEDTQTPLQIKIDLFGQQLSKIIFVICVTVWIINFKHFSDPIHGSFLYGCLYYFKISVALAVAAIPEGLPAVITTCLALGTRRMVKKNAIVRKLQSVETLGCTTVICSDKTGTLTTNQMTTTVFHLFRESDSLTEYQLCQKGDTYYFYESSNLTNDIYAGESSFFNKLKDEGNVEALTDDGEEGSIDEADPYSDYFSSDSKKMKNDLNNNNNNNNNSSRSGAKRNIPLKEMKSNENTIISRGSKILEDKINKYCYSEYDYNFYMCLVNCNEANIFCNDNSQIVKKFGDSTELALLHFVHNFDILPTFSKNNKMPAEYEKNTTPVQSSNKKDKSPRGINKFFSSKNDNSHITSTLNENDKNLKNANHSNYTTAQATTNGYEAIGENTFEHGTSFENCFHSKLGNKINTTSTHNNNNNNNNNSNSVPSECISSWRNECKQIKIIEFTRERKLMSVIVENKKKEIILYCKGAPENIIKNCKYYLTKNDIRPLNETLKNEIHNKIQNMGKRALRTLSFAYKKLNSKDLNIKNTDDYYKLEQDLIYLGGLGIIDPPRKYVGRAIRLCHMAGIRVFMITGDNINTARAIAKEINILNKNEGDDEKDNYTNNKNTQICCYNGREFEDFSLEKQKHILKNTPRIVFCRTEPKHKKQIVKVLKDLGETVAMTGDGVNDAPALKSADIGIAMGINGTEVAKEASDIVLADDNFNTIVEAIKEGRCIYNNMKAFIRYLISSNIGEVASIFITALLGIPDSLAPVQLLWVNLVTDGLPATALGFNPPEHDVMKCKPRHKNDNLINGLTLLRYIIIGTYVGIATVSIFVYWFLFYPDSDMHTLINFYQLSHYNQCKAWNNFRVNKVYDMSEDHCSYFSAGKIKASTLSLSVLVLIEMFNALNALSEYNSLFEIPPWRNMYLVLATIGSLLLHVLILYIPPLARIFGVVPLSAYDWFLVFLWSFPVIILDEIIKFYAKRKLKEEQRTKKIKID
Experimental: Yeast transformations were performed using the method described by Gietz and Schiestl ([48]), and transformants were selected by an uracil auxotrophic marker. Transformations were confirmed by colony PCR. Both K667 and K667Δpdr5::HIS were transformed with the following plasmids: pUGpd plasmid as a vector-only control (derived from pRS316 [49]); br434 plasmid (derived from pRS316 [50]) containing the SERCA1a coding region from rabbit skeletal fast-twitch muscle (pbr434-SERCA1a); and pUGpd containing the yeast-optimized coding region of PfATP6 from Plasmodium falciparum (pUGpd-PfATP6). Site-directed mutagenesis was performed on the SERCA1a coding region to produce the mutation E255L in the protein. Mutations were also introduced into the PfATP6 coding region to produce mutations L263E, A623E, and S769N and the double mutation A623E/S769N ([13]).
The screening assay used here was developed from the protocol used by Pulcini et al. ([13]). […] The optimal calcium concentration was periodically monitored and, if necessary, adjusted using a calcium concentration range of 10 to 30 mM. […] The yeast growth was estimated from the absorbance at 620 nm in a Tecan plate reader. […] The data collected were analyzed using GraphPad Prism v9.0 (GraphPad software, San Diego, CA, U.S.A).

What does the source list for `CC(=O)C1=C(O)[C@@H]2[C@H]3c4c[nH]c5cccc(c45)C[C@H]3C(C)(C)N2C1=O` [CPA, cyclopiazonic acid]?
IC50 [1]: 11.6 µM; IC50 [2]: 6.49 µM
